The numbers were not newly measured in patent US7652024B2, “Acylated spiropiperidine derivatives as melanocortin-4 receptor modulators” (Merck Sharp & Dohme Corp., priority 2005, dated 2010), which cites them from elsewhere.

This series concerns erectile dysfunction patients.

For `CCCc1nn(C)c2c(=O)[nH]c(-c3cc(S(=O)(=O)N4CCN(C)CC4)ccc3OCC)nc12` [Sildenafil, sildenafil], the “effective in share of patients” value is listed as “about 70%”.
